How the values were obtained:
[1] = Bryostatin levels in plasma and brain after intravenous injection; format: in vivo, mice
Protocol: Measurements of bryostatin were analyzed at different time points subsequent to administration of a high dose of bryostatin (114 μg/m2). […] The plasma/brain ratio can be greater than 30.
Protocol: Male C57BL/6M mice (15-20 g, Charles River) were acclimatized for 7-8 days in a non-enriched environment, three mice per cage. Bryostatin (Tocris) was dissolved in DMSO, diluted into 0.9% saline, and injected into the tail vein at doses of 10 and 15 μg/m2. After a fixed period, the mice were anesthetized with CO2 and the brain was frozen on dry ice. Blood was mixed with 0.2 ml 1 mM EDTA in PBS, centrifuged at 100 g for 30 min, and plasma was frozen on dry ice. In some experiments, blood lymphocyte fractions were collected using Ficoll-Paque Plus reagent using the procedure recommended by the manufacturer. All animal procedures were approved by the institutional IACUC.
Bryostatin was injected into the tail vein of C57BL/6N mice at 10 and 15 μg/m2 (equivalent to 3.50 and 5.25 μg/kg), and brain PKC-ε concentration was measured using Western blots. Brain PKC-ε activation was biphasic, peaking at 0.5 h and slowly declined toward resting levels, even though bryostatin levels continued to increase. This is consistent with the short-lived activation of PKC established previously. […] The bryostatin concentration at 0.5 h was 0.029 nM.

HCN-2 cells = experiment: Synaptogenesis in HCN-2 cells; format: cell-based, human; conditions: 10 days
Protocol: FIG. 9 illustrates that activation of PKC-ε induces synaptogenesis in HCN-2 cells. The HCN-2 cell line was derived from cortical tissue removed from a patient undergoing hemispherectomy for intractable seizures associated with Rasmussen's encephalitis. The cells were treated with either DCPLA-methyl ester or bryostatin-1 for 10 days. […] Thus, PKC-ε activation can induce synaptogenesis in both embryonic and adult neuronal cells.

human neprilysin = experiment: Neprilysin activity in SH+hNEP cells (fluorometric); format: cell-based; conditions: 1 nM for 15 min to 3 hours; 0.27, 0.5, 1, or 2 nM for 1 hr (FIG. 32)
Protocol: Protocol: Intact SH+hNEP cells were incubated in the absence or presence of bryostatin (1 nM) for 15 min, 30 min, 1 hour, or 3 hours. Cells were then lysed and neprilysin activity was measured. 50 μg of total lysates were separately incubated with 0.5 mM glutaryl-Ala-Ala-Phe-4-methoxy-2-naphthylamide as a substrate. Further incubation with leucine aminopeptidases released free 4-methoxy-2-naphthylamide that was measured fluorometrically at an emission of 425 nm (Mean+SEM of three independent experiments, *P<0.05; **P<0.01, Bryo compared with untreated condition). Intact SH+hNEP cells were incubated in the absence or presence of bryostatin (Bryo) at 0.27, 0.5, 1, or 2 nM concentration for 1 hr, lysed and then neprilysin activity for each condition was fluorometically measured as shown in (A) (Mean+SEM of three independent experiments, *P<0.05; **P<0.01, Bryo compared with untreated condition). Results are shown below in FIG. 32 (A—fluorometric results of free 4-methoxy-2-naphthylamide measured at different time points; B—fluorometric results of free 4-methoxy-2-naphthylamide measured at different concentrations of bryostatin).
Immunoprecipitates were subjected to Western blot analysis using phospho-Ser/Thr or neprilysin antibody (Mean+SEM of three independent experiments, **P<0.01, Bryo compared with untreated; #P<0.01, Ro+Bryo compared with Bryo). […]

cerebral ischemia rats = experiment: Pyramidal cells, BDNF and synapses in dorsal hippocampal CA1 area after cerebral ischemia; format: in vivo; conditions: 15 μg/m^2 tail vein for 5 weeks beginning 24 hours after ischemic/hypoxic event
Protocol: Protocol: Rats were administered bryostatin-1 (15 μg/m^2, tail vein injection) for 5 weeks beginning 24 hours after the end of the ischemic/hypoxic event. […] Non-treated groups received the same vehicle volumes, mechanism of delivery, and frequency of administration as the treated groups.

mTBI mice = experiment: Minimal traumatic brain injury, MWM cognitive test; format: in vivo; conditions: 5× i.p. over 14 days; for mTBI induced learning deficits (MWM): injured mice
Protocol: Protocol: One hour after the minimal traumatic brain injury was induced, the mice received a 5×i.p. bryostatin-1 injection treatment over a period of 14 days, in two injection doses 20 and 30 μg/kg (N=9 in each group). One hour after the last injection of the series, the cognitive ability of the mice was tested in the MWM. Mice were tested for 4 days 6 times a day. On day 5 the platform was removed and the mice memory retention was tested. […] Data was analyzed using repeated measure one way ANOVA and presented as mean±S.E.M. Both doses protected the learning abilities of the injured mice (pb0.01).

[2] = system: fragile X transgenic mice; experiment: Synapses in fragile X transgenic mice; format: in vivo; conditions: 25 μg/kg body weight intraperitoneal twice a week for 3 months
Protocol: Protocol: Bryostatin (25 μg/kg body weight, intraperitoneal injection) was administered to 2 month old fragile X transgenic mice twice a week for 3 months. […] Non-treated groups (WC and TC) received the same vehicle volumes, mechanism of delivery, and frequency of administration as the treated groups.

[3] = system: healthy brown Norway rats; experiment: Learning, memory and mushroom spine synapses in healthy rats, water maze training; format: in vivo; design: learning acquisition: dose or concentration left out as unconfirmed
Excerpt: Protocol: Non-disease, healthy brown Norway rats (at 4-5 months old) were used in this study. […] (Nv=naîve controls; Sw=swim controls; Mz=water maze treatment; and Mz/Br=water maze treatment plus bryostatin treatment).

HL-60 cells = conditions: Kraft et al. 1986; cited from earlier work
[4] = 10 mg/kg body weight intraperitoneal, 3 doses every other days, during water maze training

Structure (SMILES): CCC/C=C/C=C/C(=O)O[C@H]1/C(=C/C(=O)OC)C[C@H]2C[C@H]([C@@H](C)O)OC(=O)C[C@H](O)C[C@@H]3C[C@H](OC(C)=O)C(C)(C)[C@](O)(C[C@@H]4C/C(=C/C(=O)OC)C[C@H](/C=C/C(C)(C)[C@]1(O)O2)O4)O3 [Bryostatin, bryostatin-1]
- brain bryostatin relative to PKC downregulation ([1]; FIG. 2, brain versus plasma): below PKC downregulation
- plasma/brain ratio ([1]; single intravenous injection, 114 μg/m2, mice): greater than 30
- half-life in the brain as compared to plasma ([1]; single intravenous injection, high dose 114 μg/m2, mice): extremely long half-life in the brain as compared to in plasma
- bryostatin concentration at 0.5 h ([1]; tail vein 10 and 15 μg/m2, C57BL/6N mice, 0.5 h): 0.029 nM
- differentiation, neuronal branching and punctate colocalization of PSD-95 and synaptophysin (HCN-2 cells): significant differentiation with neuronal branching and increased punctate colocalization of PSD-95 and synaptophysin
- neprilysin activity (human neprilysin): increases neprilysin activity
- immunofluorescence intensity of BDNF (cerebral ischemia rats): induced an increase in the immunofluorescence intensity of brain-derived neurotrophic factor (BDNF)
- loss of dendritic spines and synapses (cerebral ischemia rats): protected the loss of dendritic spines and synapses
- neuronal loss (cerebral ischemia rats; 9 days after last dose): prevented neuronal loss
- acquisition of the learning task, mTBI group versus control mice (mTBI mice; 20 μg/kg): improved their acquisition of the learning task even beyond that of control mice
- learning of control uninjured mice (mTBI mice; 20 μg/kg): no effect on uninjured mice
- mTBI induced learning deficits (MWM) (mTBI mice; 20 μg/kg): protected against the mTBI induced learning deficits
- learning of control uninjured mice (mTBI mice; 30 μg/kg): improved the learning of control uninjured mice
- mTBI induced learning deficits (MWM) (mTBI mice; 30 μg/kg): protected against the mTBI induced learning deficits
- losses of postsynaptic dendritic spines [2]: rescued the losses of
- losses of presynaptic vesicles within presynaptic axonal boutons [2]: rescued the losses of
- losses of synapses [2]: rescued the losses of synapses
- memory retention [3, 4]: promoted
- memory-specific induction of mushroom spine synapses [3, 4]: promotes memory-specific induction of mushroom spine synapses
- non-mushroom spine density in naïve rats ([3]; Bryostatin alone, no water maze): increased non-mushroom spine density
- learning acquisition ([3]; intraperitoneal, 3 doses every other days, during water maze training): promoted learning acquisition
- phorbol ester-induced differentiation of HL-60 cells (HL-60 cells): block phorbol ester-induced differentiation of HL-60 cells

Source: patent US20160025704A1, “METHODS FOR IDENTIFYING NEUROPROTECTIVE PKC ACTIVATORS” (priority 2013, published 2016)
